Measurements from the supplement of paper PMC11208160.

Assay: recombinant UMI read abundance after kanamycin selection (control-corrected) (log10(CPM+1)); higher = more efficient recombination; extreme values may be limits of the assay; sequences stand for … in AGTGCAGAGAAAATCGGCCAGTTTTCTCTGCCTGCAGTCCGCATGCCGTGGGACCCCTTGGGTTCTAACCTGTTGCCTAGATTTATGCAGCGGACTGCCTTTCTCCCAAAGTGATAAACCGG…AGGTTGGTTTCACT; site = the 11-nt donor
In short: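 For the IS621 bridge recombinase, a pooled Escherichia coli screen tested donor and donor-binding-loop pairs. Cells received the pair library together with a target plasmid encoding a fixed target and T7-inducible recombinase, then went onto IPTG (0.07 mM) plus kanamycin or unselected plates in duplicate. After PCR across the donor–target junction and sequencing, recombinant UMI counts were normalized to CPM, averaged, and scaled by control-derived factors. Each value is given as log10(CPM+1).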
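Also: IS621 bridge recombinase in Escherichia coli cells against a fixed T5 target plasmid.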

Sequence | recombinant UMI read abundance (log10)
GGCGCGACATGGACCGGTTTTCCCGGTAATCCGTATTTGCC (site GGCGCGACTGG) | 1.35
GGCGGCGCATGGACCGGTTTTCCCGGTAATCCGTATTTGTA (site GGCGGCGCTTA) | 0.781
GGCTACCCATGGACCGGTTTTCCCGGTAATCCGTATTTGTT (site GGCAACCCTAA) | 0.00887
GGCTACCCATGGACCGGTTTTCCCGGTAATCCGTATTTGTT (site GGCCACCCTAA) | 0.268
GGCTACCCATGGACCGGTTTTCCCGGTAATCCGTATTTGTT (site GGCGACCCTAA) | 0.015
GGCTACCCATGGACCGGTTTTCCCGGTAATCCGTATTTGTT (site GGCTACCCTAA) | 0.0101
GGCTAGTCATGGACCGGTTTTCCCGGTAATCCGTATTTGAC (site GGCTAGTCTGT) | 0
GGCTCGTCATGGACCGGTTTTCCCGGTAATCCGTATTTGCA (site GGCTCGTCTTG) | 2.16
GGCTCTACATGGACCGGTTTTCCCGGTAATCCGTATTTGGC (site GGCTCTACTGC) | 0
GGCTCTGCATGGACCGGTTTTCCCGGTAATCCGTATTTGCT (site GGCTCTGCTAG) | 1.66
GGCTTAGCATGGACCGGTTTTCCCGGTAATCCGTATTTGAG (site GGCTTAGCTCT) | 1.13
GGCTTGACATGGACCGGTTTTCCCGGTAATCCGTATTTGCG (site GGCTTGACTCG) | 0.919
GGGAAGACATGGACCGGTTTTCCCGGTAATCCGTATTTGGA (site AGGAAGACTTG) | 0.00654
GGGAAGACATGGACCGGTTTTCCCGGTAATCCGTATTTGGA (site GGGAAGACTTC) | 1.22
GGGAAGACATGGACCGGTTTTCCCGGTAATCCGTATTTGGT (site GGGAAGACTAC) | 0.836
GGGAAGCCATGGACCGGTTTTCCCGGTAATCCGTATTTGTT (site CGGAATCCTAA) | 0
GGGAAGCCATGGACCGGTTTTCCCGGTAATCCGTATTTGTT (site GGGAAGCCTAA) | 0.0967
GGGAAGGCATGGACCGGTTTTCCCGGTAATCCGTATTTGCA (site AGGAAGACTTG) | 0
GGGAAGGCATGGACCGGTTTTCCCGGTAATCCGTATTTGCA (site GGGAAGGCTTG) | 2.86
GGGAATCCATGGACCGGTTTTCCCGGTAATCCGTATTTGAT (site CGGAATCCTAA) | 0
GGGAATCCATGGACCGGTTTTCCCGGTAATCCGTATTTGAT (site GGGAATCCTAT) | 0.145
GGGAATCCATGGACCGGTTTTCCCGGTAATCCGTATTTGTT (site AGGAATCCTAA) | 0
GGGAATCCATGGACCGGTTTTCCCGGTAATCCGTATTTGTT (site CGGAATCCTAA) | 0

Sequence | recombinant UMI read abundance (log10)
GGGAATCCATGGACCGGTTTTCCCGGTAATCCGTATTTGTT (site GGGAATCCTAA) | 0.192
GGGAATCCATGGACCGGTTTTCCCGGTAATCCGTATTTGTT (site TGGAATCCTAA) | 0.0126
GGGAATGCATGGACCGGTTTTCCCGGTAATCCGTATTTGGT (site GGGAATGCTAC) | 0.885
GGGACACCATGGACCGGTTTTCCCGGTAATCCGTATTTGCA (site GGGACACCTTG) | 0
GGGACACCATGGACCGGTTTTCCCGGTAATCCGTATTTGCA (site GGGCCACCTTG) | 0
GGGACACCATGGACCGGTTTTCCCGGTAATCCGTATTTGCA (site GGGGCACCTTG) | 0
GGGACACCATGGACCGGTTTTCCCGGTAATCCGTATTTGCA (site GGGTCACCTTG) | 0
GGGACGTCATGGACCGGTTTTCCCGGTAATCCGTATTTGAC (site GGGACGTCTGT) | 3.2
GGGACGTCATGGACCGGTTTTCCCGGTAATCCGTATTTGCA (site GGGACGTCTTG) | 1.99
GGGACGTCATGGACCGGTTTTCCCGGTAATCCGTATTTGGC (site GGGACGTCTGC) | 2.43
GGGACTACATGGACCGGTTTTCCCGGTAATCCGTATTTGAC (site AGGACTACTGT) | 0
GGGACTACATGGACCGGTTTTCCCGGTAATCCGTATTTGAC (site CGGACTACTGT) | 0
GGGACTACATGGACCGGTTTTCCCGGTAATCCGTATTTGAC (site GGGACTACTGT) | 1.48
GGGACTACATGGACCGGTTTTCCCGGTAATCCGTATTTGAC (site TGGACTACTGT) | 0
GGGACTCCATGGACCGGTTTTCCCGGTAATCCGTATTTGAG (site TACGTATCTTC) | 0.0126
GGGACTCCATGGACCGGTTTTCCCGGTAATCCGTATTTGCG (site GGGACTCCTCG) | 0.509
GGGATAGCATGGACCGGTTTTCCCGGTAATCCGTATTTGTT (site GGGATAGCTAA) | 1.85
GGGCAGGCATGGACCGGTTTTCCCGGTAATCCGTATTTGAG (site GGGCAGGCTCT) | 1.48
GGGCAGGCATGGACCGGTTTTCCCGGTAATCCGTATTTGGG (site GGGCAGGCTCC) | 0.0905
GGGCATACATGGACCGGTTTTCCCGGTAATCCGTATTTGAC (site GGGCATACTGT) | 1.8
GGGCCGTCATGGACCGGTTTTCCCGGTAATCCGTATTTGTA (site GGGCCGTCTTA) | 0.733
GGGCGATCATGGACCGGTTTTCCCGGTAATCCGTATTTGGC (site GGGCGATCTGC) | 1.98
GGGGAGGCATGGACCGGTTTTCCCGGTAATCCGTATTTGAG (site GGGGAGGCTCT) | 0.897

Sequence | recombinant UMI read abundance (log10)
GGGGATTCATGGACCGGTTTTCCCGGTAATCCGTATTTGAT (site GGGGATTCTAT) | 1.72
GGGGCACCATGGACCGGTTTTCCCGGTAATCCGTATTTGCA (site AGGGCACCTTG) | 0
GGGGCACCATGGACCGGTTTTCCCGGTAATCCGTATTTGCA (site CGGGCACCTTG) | 0
GGGGCACCATGGACCGGTTTTCCCGGTAATCCGTATTTGCA (site GAGGCACCTTG) | 0.00459
GGGGCACCATGGACCGGTTTTCCCGGTAATCCGTATTTGCA (site GCGGCACCTTG) | 0
GGGGCACCATGGACCGGTTTTCCCGGTAATCCGTATTTGCA (site GGAGCACCTTG) | 0
GGGGCACCATGGACCGGTTTTCCCGGTAATCCGTATTTGCA (site GGCGCACCTTG) | 0
GGGGCACCATGGACCGGTTTTCCCGGTAATCCGTATTTGCA (site GGGACACCTTG) | 0
GGGGCACCATGGACCGGTTTTCCCGGTAATCCGTATTTGCA (site GGGCCACCTTG) | 0.00389
GGGGCACCATGGACCGGTTTTCCCGGTAATCCGTATTTGCA (site GGGGAACCTTG) | 0
GGGGCACCATGGACCGGTTTTCCCGGTAATCCGTATTTGCA (site GGGGCAACTTG) | 0
GGGGCACCATGGACCGGTTTTCCCGGTAATCCGTATTTGCA (site GGGGCACCTAG) | 0.0125
GGGGCACCATGGACCGGTTTTCCCGGTAATCCGTATTTGCA (site GGGGCACCTCG) | 0.0103
GGGGCACCATGGACCGGTTTTCCCGGTAATCCGTATTTGCA (site GGGGCACCTGG) | 0
GGGGCACCATGGACCGGTTTTCCCGGTAATCCGTATTTGCA (site GGGGCACCTTA) | 0.011
GGGGCACCATGGACCGGTTTTCCCGGTAATCCGTATTTGCA (site GGGGCACCTTC) | 0.0181
GGGGCACCATGGACCGGTTTTCCCGGTAATCCGTATTTGCA (site GGGGCACCTTG) | 0
GGGGCACCATGGACCGGTTTTCCCGGTAATCCGTATTTGCA (site GGGGCACCTTT) | 0.0161
GGGGCACCATGGACCGGTTTTCCCGGTAATCCGTATTTGCA (site GGGGCAGCTTG) | 0
GGGGCACCATGGACCGGTTTTCCCGGTAATCCGTATTTGCA (site GGGGCATCTTG) | 0
GGGGCACCATGGACCGGTTTTCCCGGTAATCCGTATTTGCA (site GGGGCCCCTTG) | 0.0249
GGGGCACCATGGACCGGTTTTCCCGGTAATCCGTATTTGCA (site GGGGCGCCTTG) | 0.0148
